From patent publication US11322228B2, “Structure based design of d-protein ligands” (Janssen Vaccines & Prevention B.V., priority 2015, dated 2022)
Where a SMILES comes first, the peptide text is derived from it. Bridges are numbered along the chain shown (N, C = ends). Where no end group is shown, it is not given here. [ ]: non-standard residue; d: D form. d2Nal = N[C@H](Cc1ccc2ccccc2c1)C(=O)O; dNle = CCCC[C@@H](N)C(=O)O

Columns and labels:
IL17A [1] = target: T1, IL17A (Homo sapiens, UniProt Q16552); assay: ELISA competition assay against Centyrin WPW-His on IL17A; assay type: binding
T1 sequence (Q16552 24-155): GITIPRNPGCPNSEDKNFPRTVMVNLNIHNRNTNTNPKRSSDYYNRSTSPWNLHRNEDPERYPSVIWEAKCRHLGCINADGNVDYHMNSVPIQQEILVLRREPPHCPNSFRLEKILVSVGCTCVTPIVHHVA
Text: (§1) In order to assess the potential binding of the D-Proteins to IL17A at the binding site of CNT06785, the D-Proteins were screened in an ELISA competition assay against a known competitor of antibody CNT06785, Centyrin WPW-His. To show the specific binding to the epitope, negative control antibody CAT2200 was taken along that binds to a different, non-overlapping epitope on IL17A. […] Upper graphs show competition with centyrin WPW, lower graphs—with antibody CAT2200 binding to a non-overlapping epitope. Response is plotted as a function of logarithm of concentration.

IL17A [2] = target: T1, IL17A; assay: ELISA competition assay against negative control antibody CAT2200 (non-overlapping epitope) on IL17A; conditions: antibody binding a non-overlapping epitope on IL17A
Text: as §1

Influenza hemagglutinin [3] = assay: ELISA competition with head binding antibody CR11054 (non-overlapping epitope); conditions: non-overlapping epitope on HA
Influenza hemagglutinin [4] = assay: ELISA assay for competition with designer protein HB80.4 (stem epitope); assay type: binding; conditions: for competition with HB80.4 (result in words): stem binding HB80.4, competition ELISA on HA

Compound | competition with centyrin WPW (result in words) (IL17A [1]) | competition with CAT2200 (result in words) (IL17A [2]) | competition with CR11054 (result in words) (Influenza hemagglutinin [3]) | competition with HB80.4 (result in words) (Influenza hemagglutinin [4]) | pIC50, competition with HB80.4 (Influenza hemagglutinin [4]; competition ELISA on HA) | IC50 (Influenza hemagglutinin [4]; competition ELISA on HA, read-out: IC50 given in brackets after pIC50, competition with HB80.4 (converted))
CCCC[C@H]1NC(=O)[C@@H](CCCCN)NC(=O)[C@@H](CCSC)NC(=O)[C@@H](CC(C)C)NC(=O)[C@@H](Cc2c[nH]cn2)NC(=O)[C@@H](CCCCN)NC(=O)[C@H]2CSSC[C@H]3NC(=O)[C@@H]([C@H](C)O)NC(=O)[C@@H](CCCCN)NC(=O)[C@@H](CCCNC(=N)N)NC(=O)[C@@H](CSSC[C@@H](NC(=O)[C@@H](Cc4ccccc4)NC(=O)[C@@H](CC(C)C)NC(=O)[C@@H](CCCCN)NC(=O)[C@H]4CCCN4C(=O)[C@@H](Cc4ccccc4)NC(=O)[C@@H]([C@H](C)O)NC(=O)[C@@H](C)NC(=O)[C@@H](CCC(N)=O)NC(=O)[C@H](NC(=O)[C@@H](CO)NC(=O)[C@H](N)CCCNC(=N)N)CSSC[C@H](C(=O)O)NC(=O)[C@@H]([C@H](C)O)NC(=O)CNC3=O)C(=O)N[C@H]([C@H](C)O)C(=O)N[C@H](C)C(=O)N[C@H](Cc3ccccc3)C(=O)N[C@H](CC(C)C)C(=O)N2)NC(=O)[C@@H](Cc2ccc3ccccc3c2)NC(=O)[C@@H](CO)NC(=O)[C@@H](CC(C)C)NC(=O)[C@@H](CCCNC(=N)N)NC1=O [DP142137, H-rscqatfpklfctaflckhlmkxrls<crktcGtc-OH] (H-[dR][dS][dC][dQ][dA][dT][dF][dP][dK][dL][dF][dC][dT][dA][dF][dL][dC][dK][dH][dL][dM][dK][dNle][dR][dL][dS][d2Nal][dC][dR][dK][dT][dC]G[dT][dC]-OH; disulfide 3-35, 12-28, 17-32) | clear binding curve | lack of activity | – | – | – | –
H-rsciatepksfctaflckhlmkarlsycrktcGtc-OH (H-[dR][dS][dC][dI][dA][dT][dE][dP][dK][dS][dF][dC][dT][dA][dF][dL][dC][dK][dH][dL][dM][dK][dA][dR][dL][dS][dY][dC][dR][dK][dT][dC]G[dT][dC]-OH; cysteine pairing not given here) [DP141063] | lack of activity | lack of activity | – | – | – | –
H-rscidtipksrctafqckhsmkyrlsfcrktcGtc-OH [DP141050, reference compound] | lack of activity | lack of activity | lack of activity | – | – | –
H-rscqatepkyfctaflckhlmkarlsycrktcGtc-OH (H-[dR][dS][dC][dQ][dA][dT][dE][dP][dK][dY][dF][dC][dT][dA][dF][dL][dC][dK][dH][dL][dM][dK][dA][dR][dL][dS][dY][dC][dR][dK][dT][dC]G[dT][dC]-OH; cysteine pairing not given here) [DP141065] | lack of activity | lack of activity | – | – | – | –
racprilkkcrrdsdcpGecickGnGycG (RACPRILKKCRRDSDCPGECICKGNGYCG) [DP141753, wild-type scaffold 2LJS as D-protein, negative control, reference compound] | – | – | – | no competition until the highest concentration | – | –
rfcpsibkkcrrdsdcpG!cickGnGycG (RFCPSIXKKCRRDSDCPGXCICKGNGYCG; not fully specified (some residues); printed as rfcpsibkkcrrdsdcpG!cickGnGycG; cysteine pairing not given here) [DP142093, optimized HA hit, D-protein on scaffold 2LJS] | – | – | no competition | clear S-curve | 4.1 | 88 µM
